In patent US9938260B2, “Soluble guanylate cyclase activators and their use” (GlaxoSmithKline Intellectual Property Development Limited, priority 2014, dated 2018):
Counter-ions that a name gives are not always drawn.

Target: T1, soluble guanylate cyclase (sGC) (Rattus norvegicus, UniProt P20595)
T1 construct: endogenous in cells; host or cells: primary rat aortic smooth muscle cells
T1 sequence (P20595 1-619): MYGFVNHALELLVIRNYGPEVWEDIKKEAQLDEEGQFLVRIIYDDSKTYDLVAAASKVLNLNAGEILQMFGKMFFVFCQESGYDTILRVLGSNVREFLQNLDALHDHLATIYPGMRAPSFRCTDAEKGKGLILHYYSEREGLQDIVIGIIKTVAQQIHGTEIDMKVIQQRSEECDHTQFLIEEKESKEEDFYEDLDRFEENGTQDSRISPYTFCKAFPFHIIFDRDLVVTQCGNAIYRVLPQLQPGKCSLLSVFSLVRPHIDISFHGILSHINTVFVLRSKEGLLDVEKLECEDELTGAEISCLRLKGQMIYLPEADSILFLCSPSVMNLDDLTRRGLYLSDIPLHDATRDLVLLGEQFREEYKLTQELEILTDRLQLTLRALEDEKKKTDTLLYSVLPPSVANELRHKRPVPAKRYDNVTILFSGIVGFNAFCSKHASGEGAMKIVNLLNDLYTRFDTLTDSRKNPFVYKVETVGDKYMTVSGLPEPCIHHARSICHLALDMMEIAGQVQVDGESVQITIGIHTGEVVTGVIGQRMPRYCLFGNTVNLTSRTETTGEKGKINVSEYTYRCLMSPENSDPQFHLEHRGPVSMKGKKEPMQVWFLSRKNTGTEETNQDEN
T1 sequence (P19686 1-690 partner): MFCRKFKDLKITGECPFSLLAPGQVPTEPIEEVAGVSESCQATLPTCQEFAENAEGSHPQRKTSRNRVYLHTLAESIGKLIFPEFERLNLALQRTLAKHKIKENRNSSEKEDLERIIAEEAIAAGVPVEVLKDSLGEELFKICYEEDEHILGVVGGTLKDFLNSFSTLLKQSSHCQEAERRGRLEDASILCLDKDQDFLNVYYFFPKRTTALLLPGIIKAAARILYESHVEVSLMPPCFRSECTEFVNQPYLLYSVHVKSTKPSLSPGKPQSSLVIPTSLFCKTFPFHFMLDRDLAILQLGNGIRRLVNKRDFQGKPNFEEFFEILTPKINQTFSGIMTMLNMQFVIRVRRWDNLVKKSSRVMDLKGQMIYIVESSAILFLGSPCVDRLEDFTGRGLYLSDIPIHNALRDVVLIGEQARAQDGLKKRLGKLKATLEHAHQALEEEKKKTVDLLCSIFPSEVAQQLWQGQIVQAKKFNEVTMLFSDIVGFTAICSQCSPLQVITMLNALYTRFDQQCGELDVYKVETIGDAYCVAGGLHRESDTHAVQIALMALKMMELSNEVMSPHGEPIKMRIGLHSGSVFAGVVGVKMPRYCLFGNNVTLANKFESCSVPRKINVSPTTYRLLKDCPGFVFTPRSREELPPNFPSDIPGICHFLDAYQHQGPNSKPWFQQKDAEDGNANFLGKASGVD
Experiment: Biological cellular assay: sGC activity by phosphorylation of VASP in rat aortic smooth muscle cells
Type: cell-based
Conditions: primary rat aortic smooth muscle cells, pre-incubated with 10 μM ODQ, 30 min at 37° C., phospho-VASP (pSer239) fluorescent signal; read-out: Cell assay pEC50 (converted)
Experimental: The activity of soluble guanylate cyclase (sGC) was tested in an assay based on measuring phosphorylation of the protein kinase G (PKG) substrate vasodilator-stimulated phosphoprotein (VASP) in rat aortic smooth muscle cells. […] Dimethylsulfoxide (DMSO) vehicle and varying concentrations of the compound to be tested were then added. Following a 30 min incubation at 37° C., media was aspirated and the cells were rinsed with phosphate-buffered saline (PBS) and fixed with 4% formaldehyde in PBS by incubating at room temperature for 20 min. Cells were then washed with PBS and permeabilized for 10 min using 0.1% triton X-100 in PBS. Following PBS rinsing, the cells were blocked for 90 min at room temperature with blocking buffer. The buffer was aspirated and the cells were treated overnight at 4° C. with primary antibody (pSer239-VASP, rabbit polyclonal Ab) diluted 1:500 in blocking buffer. Following three washes with 0.05% Tween 20, the cells were treated for 1 h at room temperature with a fluorescent labeled secondary antibody (IRDye® 800CW Donkey Anti-Rabbit IgG) diluted 1:2500 in blocking buffer with 0.05% Tween 20. Following two washes with PBS, infrared fluorescence was measured using an Odyssey Infrared Imaging System. The activity of a test compound was determined as the pEC50 value which is the concentration able to increase by 50% (vs. Bmax) the phospho-VASP fluorescent signal. Front. Pharmacol., 5 Jul. 2012|doi: 10.3389/fphar.2012.00128, Volume 3 July, 2012, Article number 128.

| EC50 | SMILES |
| --- | --- |
| 0.126 nM | COCC(=O)N1CCC(c2ccc(COc3c(F)cc(F)cc3-c3cccc(N4CCC(C(=O)O)CC4)n3)c(C)c2)CC1 [Example 60, 1-(6-(3,5-difluoro-2-((4-(1-(2-methoxyacetyl)piperidin-4-yl)-2-methylbenzyl)oxy)phenyl)pyridin-2-yl)piperidine-4-carboxylic acid, Sodium salt] |
| 0.398 nM | Cc1cc(C2CCN(C(=O)CC#N)CC2)ccc1COc1c(F)cc(F)cc1-c1cccc(N2CCC(C(=O)O)CC2)n1 [Example 63, 1-(6-(2-((4-(1-(2-cyanoacetyl)piperidin-4-yl)-2-methylbenzyl)oxy)-3,5-difluorophenyl)pyridin-2-yl)piperidine-4-carboxylic acid, Sodium salt] |
| 0.316 nM | Cc1cc(C2CCN(C(=O)CC3CC3)CC2)ccc1COc1c(F)cc(F)cc1-c1cccc(N2CCC(C(=O)O)CC2)n1 [Example 66, 1-(6-(2-((4-(1-(2-cyclopropylacetyl)piperidin-4-yl)-2-methylbenzyl)oxy)-3,5-difluorophenyl)pyridin-2-yl)piperidine-4-carboxylic acid, Sodium salt] |
| 0.251 nM | Cc1cc(C2CCN(C(=O)C3CCOC3)CC2)ccc1COc1c(F)cc(F)cc1-c1cccc(N2CCC(C(=O)O)CC2)n1 (stereo not shown) [Example 69, 1-(6-(3,5-difluoro-2-((2-methyl-4-(1-(tetrahydrofuran-3-carbonyl)piperidin-4-yl)benzyl)oxy)phenyl)pyridin-2-yl)piperidine-4-carboxylic acid, Sodium salt] |
| 0.427 nM | Cc1cc(C2CCN(C(=O)[C@H]3CCOC3)CC2)ccc1COc1c(F)cc(F)cc1-c1cccc(N2CCC(C(=O)O)CC2)n1 [Example 72, (S)-1-(6-(3,5-difluoro-2-((2-methyl-4-(1-(tetrahydrofuran-3-carbonyl)piperidin-4-yl)benzyl)oxy)phenyl)pyridin-2-yl)piperidine-4-carboxylic acid, Sodium salt] |
| 0.0891 nM | Cc1cc(C2CCN(C(=O)[C@@H]3CCOC3)CC2)ccc1COc1c(F)cc(F)cc1-c1cccc(N2CCC(C(=O)O)CC2)n1 [Example 73, (R)-1-(6-(3,5-difluoro-2-((2-methyl-4-(1-(tetrahydrofuran-3-carbonyl)piperidin-4-yl)benzyl)oxy)phenyl)pyridin-2-yl)piperidine-4-carboxylic acid, Sodium salt] |
| 1 nM | Cc1cc(C2CCN(C(=O)CC3COC3)CC2)ccc1COc1c(F)cc(F)cc1-c1cccc(N2CCC(C(=O)O)CC2)n1 [Example 76, 1-(6-(3,5-difluoro-2-((2-methyl-4-(1-(2-(oxetan-3-yl)acetyl)piperidin-4-yl)benzyl)oxy)phenyl)pyridin-2-yl)piperidine-4-carboxylic acid, Sodium salt] |
| 1.26 nM | Cc1cc(C2CCN(C(=O)CC3CCOC3)CC2)ccc1COc1c(F)cc(F)cc1-c1cccc(N2CCC(C(=O)O)CC2)n1 (stereo not shown) [Example 79, 1-(6-(3,5-difluoro-2-((2-methyl-4-(1-(2-(tetrahydrofuran-3-yl)acetyl)piperidin-4-yl)benzyl)oxy)phenyl)pyridin-2-yl)piperidine-4-carboxylic acid, Sodium salt] |
| 15.8 nM | Cc1cc(C2CCN(C(=O)CC(=O)O)CC2)ccc1COc1c(F)cc(F)cc1-c1cccc(N2CCC(C(=O)O)CC2)n1 [Example 81, 1-(6-(2-((4-(1-(2-carboxyacetyl)piperidin-4-yl)-2-methylbenzyl)oxy)-3,5-difluorophenyl)pyridin-2-yl)piperidine-4-carboxylic acid, di-Sodium salt] |
| 20 nM | Cc1cc(C2CCN(C(=O)Cn3cncn3)CC2)ccc1COc1c(F)cc(F)cc1-c1cccc(N2CCC(C(=O)O)CC2)n1 [Example 84, 1-(6-(2-((4-(1-(2-(1H-1,2,4-triazol-1-yl)acetyl)piperidin-4-yl)-2-methylbenzyl)oxy)-3,5-difluorophenyl)pyridin-2-yl)piperidine-4-carboxylic acid, Sodium salt] |
| 2.51 nM | COc1cc(C2CCN(CC(F)(F)F)CC2)ccc1COc1c(F)cc(F)cc1-c1cccc(N2CCC(C(=O)O)CC2)n1 [Example 87, 1-(6-(3,5-difluoro-2-((2-methoxy-4-(1-(2,2,2-trifluoroethyl)piperidin-4-yl)benzyl)oxy)phenyl)pyridin-2-yl)piperidine-4-carboxylic acid, Sodium salt] |
| 1.26 nM | O=C(O)C1CCN(c2cccc(-c3cc(F)cc(F)c3OCc3ccc(C4CCN(CC(F)(F)F)CC4)cc3OC3COC3)n2)CC1 [Example 90, 1-(6-(3,5-difluoro-2-((2-(oxetan-3-yloxy)-4-(1-(2,2,2-trifluoroethyl)piperidin-4-yl)benzyl)oxy)phenyl)pyridin-2-yl)piperidine-4-carboxylic acid, Sodium salt] |
| 7.94 nM | Cc1cc(OC2CCN(CC(F)(F)F)CC2)ccc1COc1c(F)cc(F)cc1-c1cccc(N2CCC(C(=O)O)CC2)n1 [Example 93, 1-(6-(3,5-difluoro-2-((2-methyl-4-((1-(2,2,2-trifluoroethyl)piperidin-4-yl)oxy)benzyl)oxy)phenyl)pyridin-2-yl)piperidine-4-carboxylic acid, Sodium salt] |
